Structures can show the parent of a compound that is named as a salt. Where two headings read alike, the source gives them in different places.
What was measured:
[1] = target: T1, SARS-CoV-2 PLpro (nsp3 1564–1878) (Severe acute respiratory syndrome coronavirus 2, UniProt P0DTD1); test: biochemical; design: FRET-quenched peptide (Pro3) cleavage by PLpro, 10 min pre-incubation, slope over 20 min, normalised to no-compound control; settings: read-out: % of control remaining
[2] = target: T1, SARS-CoV-2 PLpro (nsp3 1564–1878); test: biochemical; design: FRET-quenched peptide (Pro3) cleavage by PLpro, 10 min pre-incubation, slope over 20 min, normalised to no-compound control; settings: read-out: % of control remaining; remark: listed apart in the source

**Q.** Which results are given for `NCCc1c[nH]c2ccccc12` [Tryptamine hydrochloride]?
**A.** remaining activity at 1.25 µM ([1]; Well no.=291, low concentration screen): 97.7%; remaining activity at 3.75 µM ([2]; Well no.=291, high concentration screen): 96.5%

**Q.** With `NCCc1c[nH]c2ccccc12` [Tryptamine] as the molecule, how does the remaining activity at 1.25 µM ([1]; Well no.=7365, low concentration screen) read?
**A.** 97.9%

**Q.** What about the remaining activity at 3.75 µM ([2]; Well no.=7365, high concentration screen) of the same molecule?
**A.** 99.2%

**Q.** How did the remaining activity at 1.25 µM ([1]; Well no.=3376, low concentration screen) turn out when `O=C1c2ccccc2-n2c1nc1ccccc1c2=O` [Tryptanthrin] was run?
**A.** 96.9%

**Q.** What about the remaining activity at 3.75 µM ([2]; Well no.=3376, high concentration screen) of the same molecule?
**A.** 100%

**Q.** `COc1cc(C(=O)O[C@H]2C/C(C)=C/CC/C(C)=C/[C@H](O)[C@@H]2C(C)C)ccc1O` [Tschimganidin] was tested. Which remaining activity at 1.25 µM ([1]; Well no.=3207, low concentration screen) did it give?
**A.** 89.2%

**Q.** And the remaining activity at 3.75 µM ([2]; Well no.=3207, high concentration screen)?
**A.** 100%

**Q.** Which results are given for `COc1cc(C(=O)O[C@H]2C[C@@H]3CC[C@]2(C)C3(C)C)ccc1O` [Tschimganine]?
**A.** remaining activity at 1.25 µM ([1]; Well no.=3209, low concentration screen): 104%; remaining activity at 3.75 µM ([2]; Well no.=3209, high concentration screen): 104%

**Q.** `CN1CCc2c(c3ccccc3n2Cc2ccc(C(=O)NO)cc2)C1` [Tubastatin A HCl] was tested. Which remaining activity at 1.25 µM ([1]; Well no.=4962, low concentration screen) did it give?
**A.** 90.5%

**Q.** And the remaining activity at 3.75 µM ([2]; Well no.=4962, high concentration screen)?
**A.** 88.7%

**Q.** With `Nc1ncnc2c1ccn2[C@@H]1O[C@H](CO)[C@@H](O)[C@H]1O` [Tubercidin] as the molecule, how does the remaining activity at 1.25 µM ([1]; Well no.=8060, low concentration screen) read?
**A.** 96.1%

**Q.** And the remaining activity at 3.75 µM ([2]; Well no.=8060, high concentration screen)?
**A.** 95.7%

**Q.** Which results are given for `CCOc1ccc(-c2cn(C)nc2-c2cc(OC)c(OC)c(OC)c2)cc1` [Tubulin inhibitor 1]?
**A.** remaining activity at 1.25 µM ([1]; Well no.=7162, low concentration screen): 104%; remaining activity at 3.75 µM ([2]; Well no.=7162, high concentration screen): 97.8%

**Q.** `CC(C)(C)NCC(O)c1ccccc1Cl` (centres unmarked) [Tulobuterol hydrochloride] was tested. Which remaining activity at 1.25 µM ([1]; Well no.=1291, low concentration screen) did it give?
**A.** 105%

**Q.** What about the remaining activity at 3.75 µM ([2]; Well no.=1291, high concentration screen) of the same molecule?
**A.** 106%

**Q.** What does the source list for `CC(C)(C)NCC(O)c1ccccc1Cl` (centres unmarked) [Tulobuterol]?
**A.** remaining activity at 1.25 µM ([1]; Well no.=2027, low concentration screen): 98.5%; remaining activity at 3.75 µM ([2]; Well no.=2027, high concentration screen): 100%

**Q.** How did the remaining activity at 1.25 µM ([1]; Well no.=3190, low concentration screen) turn out when `CC(=O)N[C@H]1[C@@H](O[C@@H]2O[C@H](C[C@@H](O)[C@@H]3O[C@H](n4ccc(=O)[nH]c4=O)[C@@H](O)[C@H]3O)[C@H](O)[C@H](O)[C@H]2NC(=O)/C=C/CCCCCCCCCCC(C)C)O[C@H](CO)[C@@H](O)[C@@H]1O` [Tunicamycin B] was run?
**A.** 104%

**Q.** What about the remaining activity at 3.75 µM ([2]; Well no.=3190, high concentration screen) of the same molecule?
**A.** 103%

**Q.** `O=C(CO)[C@@H](O[C@H]1O[C@H](CO)[C@@H](O)[C@H](O)[C@H]1O)[C@H](O)[C@H](O)CO` [Turanose] was tested. Which remaining activity at 1.25 µM ([1]; Well no.=6971, low concentration screen) did it give?
**A.** 92.9%

**Q.** What about the remaining activity at 3.75 µM ([2]; Well no.=6971, high concentration screen) of the same molecule?
**A.** 98.6%

**Q.** What does the source list for `CC[C@H]1OC(=O)C[C@@H](O)[C@H](C)[C@@H](O[C@@H]2O[C@H](C)[C@@H](O[C@H]3C[C@@](C)(O)[C@@H](O)[C@H](C)O3)[C@H](N(C)C)[C@H]2O)[C@@H](CC=O)C[C@@H](C)C(=O)/C=C/C(C)=C/[C@@H]1CO[C@@H]1O[C@H](C)[C@@H](O)[C@@H](OC)[C@H]1OC` [Tylosin tartrate]?
**A.** remaining activity at 1.25 µM ([1]; Well no.=4985, low concentration screen): 95.4%; remaining activity at 3.75 µM ([2]; Well no.=4985, high concentration screen): 93%

**Q.** Which results are given for `CC[C@H]1OC(=O)C[C@@H](O)[C@H](C)[C@@H](O[C@@H]2O[C@H](C)[C@@H](O[C@H]3C[C@@](C)(O)[C@@H](O)[C@H](C)O3)[C@H](N(C)C)[C@H]2O)[C@@H](CC=O)C[C@@H](C)C(=O)/C=C/C(C)=C/[C@@H]1CO[C@@H]1O[C@H](C)[C@@H](O)[C@@H](OC)[C@H]1OC` [Tylosin]?
**A.** remaining activity at 1.25 µM ([1]; Well no.=2010, low concentration screen): 96.7%; remaining activity at 3.75 µM ([2]; Well no.=2010, high concentration screen): 97.8%

**Q.** Which results are given for `CSCC[C@H](NC(=O)[C@H](Cc1ccccc1)NC(=O)CNC(=O)CNC(=O)[C@@H](N)Cc1ccc(O)cc1)C(=O)O` [Tyr-Gly-Gly-Phe-Met-OH]?
**A.** remaining activity at 1.25 µM [1]: 98.2%; remaining activity at 3.75 µM [2]: 101%

**Q.** What does the source list for `NCCc1ccc(O)cc1` [Tyramine]?
**A.** remaining activity at 1.25 µM ([1]; Well no.=6541, low concentration screen): 107%; remaining activity at 3.75 µM ([2]; Well no.=6541, high concentration screen): 101%

Source: paper PMC8286840, “Identifying SARS-CoV-2 antiviral compounds by screening for small molecule inhibitors of Nsp3 papain-like protease” (Biochemical Journal, 2021)
